A word on the pIC50: it is the negative decadic logarithm of the IC50, by convention in mol/L.

pIC50: −log10 of the molar value.

The first test deals with T1, human LPA1 (Homo sapiens, UniProt Q92633).
T1 construct: expressed in transfected cells; host or cells: Chinese hamster ovary (CHO) cells
T1 sequence (Q92633 whole entry): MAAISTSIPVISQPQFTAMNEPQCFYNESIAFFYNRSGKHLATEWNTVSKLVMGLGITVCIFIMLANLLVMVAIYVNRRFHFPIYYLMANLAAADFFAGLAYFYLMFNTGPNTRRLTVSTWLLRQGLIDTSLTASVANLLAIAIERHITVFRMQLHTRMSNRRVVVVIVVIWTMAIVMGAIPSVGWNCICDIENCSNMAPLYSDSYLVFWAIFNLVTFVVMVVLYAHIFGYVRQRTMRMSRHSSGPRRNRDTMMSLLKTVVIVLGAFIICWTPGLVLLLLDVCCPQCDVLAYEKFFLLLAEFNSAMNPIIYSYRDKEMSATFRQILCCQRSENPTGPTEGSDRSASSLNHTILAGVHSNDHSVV
Briefly: LPA1 functional antagonist assay (calcium flux). In kind it is cell-based. To be noted: CHO cells overexpressing human LPA1; calcium flux induced by 10 nM LPA; read-out: hLPA1 IC50. As for the experimental part:
The effectiveness of compounds of the present invention as LPA1 inhibitors can be determined in an LPA1 functional antagonist assay as follows:
The cells were then equilibrated to room temperature for 30 minutes before the assay. […] IC50 values were determined by fitting data to a 4-parameter logistic equation (GraphPad Prism, San Diego Calif.).
(Calcium flux is commonly read through the fluorescence of an indicator in the cells.)
In the case of `Cc1nc(-c2nnn(C)c2CN(C)C(=O)OCc2ccccc2)ccc1O[C@H]1CCC[C@H](C(=O)O)C1` [Example 35, (1S,3S)-3-((6-(5-((((benzyloxy)carbonyl)(methyl)amino)methyl)-1-methyl-1H-1,2,3-triazol-4-yl)-2-methylpyridin-3-yl)oxy)cyclohexanecarboxylic acid], the pIC50 is 7.25.
Still for that read-out and setting: then `Cn1nnc(-c2ccc(O[C@H]3CCC[C@H](C(=O)O)C3)cn2)c1CNC(=O)OCC(C)(C)C` [Example 26, (1S,3S)-3-((6-(1-methyl-5-((((neopentyloxy)carbonyl)amino)methyl)-1H-1,2,3-triazol-4-yl)pyridin-3-yl)oxy)cyclohexane-1-carboxylic acid], with 7.36; and `Cc1nc(-c2nnn(C)c2NC(=O)OCC2CCCC2)ccc1O[C@H]1CCC[C@H](C(=O)O)C1` [Example 79, (1S,3S)-3-((6-(5-(((cyclopentylmethoxy)carbonyl)amino)-1-methyl-1H-1,2,3-triazol-4-yl)-2-methylpyridin-3-yl)oxy)cyclohexane-1-carboxylic acid], with 7.49; and `Cc1nc(-c2nnn(C)c2CNC(=O)CC2CCCC2)ccc1O[C@H]1CCC[C@H](C(=O)O)C1` [Example 235, (1S,3S)-3-((6-(5-((2-cyclopentylacetamido)methyl)-1-methyl-1H-1,2,3-triazol-4-yl)-2-methylpyridin-3-yl)oxy)cyclohexanecarboxylic acid], with 6.98.
The same measure, in the same setting: with `CCOCCOC(=O)NCc1c(-c2ccc(O[C@H]3CCC[C@H](C(=O)O)C3)c(C)n2)nnn1C` [Example 56, (1S,3S)-3-((6-(5-((((2-ethoxyethoxy)carbonyl)amino)methyl)-1-methyl-1H-1,2,3-triazol-4-yl)-2-methyl-pyridin-3-yl)oxy)cyclohexane-1-carboxylic acid] the figure was 6.05; with `Cc1nc(-c2nnn(C)c2CNC(=O)C(C)(C)Oc2ccccc2)ccc1O[C@H]1CCC[C@H](C(=O)O)C1` [Example 234, (1S,3S)-3-((2-methyl-6-(1-methyl-5-((2-methyl-2-phenoxypropanamido)methyl)-1H-1,2,3-triazol-4-yl)pyridin-3-yl)oxy)cyclohexane-1-carboxylic acid], 6.41.
Same read-out and setting: with `Cc1nc(-c2nnn(C)c2CCNC(=O)CC(C)CC(C)(C)C)ccc1O[C@H]1CCC[C@H](C(=O)O)C1` (mixture of isomers) [Example 239, (1S,3S)-3-((2-methyl-6-(1-methyl-5-(2-(3,5,5-trimethylhexanamido)ethyl)-1H-1,2,3-triazol-4-yl)pyridin-3-yl)oxy)cyclohexane-1-carboxylic acid (diastereomeric mixture)] the figure was 5.99; with `Cc1nc(-c2nnn(C)c2CNC(=O)NCCC(C)C)ccc1O[C@H]1CCC[C@H](C(=O)O)C1` [Example 122, (1S,3S)-3-((6-(5-((3-isopentyl-ureido)methyl)-1-methyl-1H-1,2,3-triazol-4-yl)-2-methylpyridin-3-yl)oxy)cyclohexane-1-carboxylic acid], 7.00.
In the case of `Cc1nc(-c2nnn(C)c2CNC(=O)NCc2ccccc2)ccc1O[C@H]1CCC[C@H](C(=O)O)C1` [Example 112, (1S,3S)-3-((6-(5-((3-benzylureido)methyl)-1-methyl-1H-1,2,3-triazol-4-yl)-2-methylpyridin-3-yl)oxy)cyclohexane-1-carboxylic acid], the negative-log IC50 (pIC50) is 7.20.
On the same count and under the same terms, then `Cc1nc(-c2nnn(C)c2CNC(=O)OCCCC(C)(F)F)ccc1O[C@H]1CCC[C@H](C(=O)O)C1` [Example 206, (1S,3S)-3-((6-(5-(((((4,4-difluoropentyl)oxy)carbonyl)amino)methyl)-1-methyl-1H-1,2,3-triazol-4-yl)-2-methylpyridin-3-yl)oxy)cyclohexane-1-carboxylicacid], with 7.15; and `Cc1nc(-c2nnn(C)c2NC(=O)OCCCF)ccc1O[C@H]1CCC[C@H](C(=O)O)C1` [Example 144, (1S,3S)-3-((6-(5-(((3-fluoropropoxy)carbonyl)amino)-1-methyl-1H-1,2,3-triazol-4-yl)-2-methylpyridin-3-yl)oxy)cyclohexane-1-carboxylic acid], with 6.60; and `CC(C)COC(=O)NCc1c(-c2ccc(O[C@H]3CCC[C@H](C(=O)O)C3)c(C(F)F)n2)nnn1C` [Example 99, (1S,3S)-3-((2-(difluoromethyl)-6-(5-(((isobutoxycarbonyl)amino)methyl)-1-methyl-1H-1,2,3-triazol-4-yl)pyridin-3-yl)oxy)cyclohexane-1-carboxylic acid], with 7.15.
Same read-out and setting: with `CCCCOC(=O)NCCc1c(-c2ccc(O[C@H]3CCC[C@H](C(=O)O)C3)c(C)n2)nnn1C` [Example 107, (1S,3S)-3-((6-(5-(2-((butoxy-carbonyl)amino)ethyl)-1-methyl-1H-1,2,3-triazol-4-yl)-2-methylpyridin-3-yl)oxy)cyclohexane-1-carboxylic acid] the figure was 5.83; with `Cn1nnc(-c2ccc(O[C@H]3CCC[C@H](C(=O)O)C3)cn2)c1CNC(=O)OC1CCCC1` [Example 6, (1S,3S)-3-((6-(5-((((cyclopentyloxy)carbonyl)amino)methyl)-1-methyl-1H-1,2,3-triazol-4-yl)pyridin-3-yl)oxy)cyclohexane-1-carboxylic acid], 7.08.
On the same count and under the same terms, with `Cc1nc(-c2nnn(C)c2CNC(=O)NC2CC3CCC2C3)ccc1O[C@H]1CCC[C@H](C(=O)O)C1` (stereo partly drawn) [Example 117, (1S,3S)-3-((6-(5-((3-(bicyclo [2.2.1]heptan-2-yl)ureido)methyl)-1-methyl-1H-1,2,3-triazol-4-yl)-2-methylpyridin-3-yl)oxy)cyclohexane-1-carboxylic acid] the figure was 6.38; with `Cc1nc(-c2nnn(C)c2NC(=O)OCC2CC2)c(F)cc1O[C@H]1CCC[C@H](C(=O)O)C1` [Example 218, (1S,3S)-3-{[6-(5-{[(cyclopropylmethoxy)carbonyl]amino}-1-methyl-1H-1,2,3-triazol-4-yl)-5-fluoro-2-methylpyridin-3-yl]oxy} cyclohexane-1-carboxylic acid], 6.52.
Consider `CCC1(COC(=O)NCc2c(-c3nc(C)c(O[C@H]4CCC[C@H](C(=O)O)C4)cc3F)nnn2C)CC1` [Example 216, (1S,3S)-3-((6-(5-(((((1-ethylcyclo-propyl)methoxy)carbonyl)amino)methyl)-1-methyl-1H-1,2,3-triazol-4-yl)-5-fluoro-2-methylpyridin-3-yl)oxy)cyclohexane-1-carboxylic acid], for which the pIC50 is 7.34.
In the case of `Cc1nc(-c2nnn(C)c2CNS(=O)(=O)NCc2ccccc2)ccc1O[C@H]1CCC[C@H](C(=O)O)C1` [Example 227, (1S,3S)-3-((6-(5-(((N-benzyl-sulfamoyl)amino)methyl)-1-methyl-1H-1,2,3-triazol-4-yl)-2-methyl-pyridin-3-yl)oxy)cyclohexane-1-carboxylic acid], the negative logarithm of the IC50 (pIC50) was 5.74.
For `CCCC(C)OC(=O)Nc1c(-c2ccc(O[C@H]3CCC[C@H](C(=O)O)C3)c(C)n2)nnn1C` (stereo partly drawn) [Example 140, (1S,3S)-3-((2-methyl-6-(1-methyl-5-(((pentan-2-yloxy)carbonyl)amino)-1H-1,2,3-triazol-4-yl)pyridin-3-yl)oxy)cyclohexane-1-carboxylic acid], the pIC50 is 7.54.
On the same count and under the same terms, with `Cc1nc(-c2nnn(C)c2CNC(=O)NCC2CC(F)(F)C2)ccc1O[C@H]1CCC[C@H](C(=O)O)C1` [Example 123, (1S,3S)-3-((6-(5-((3-((3,3-difluorocyclo-butyl)methyl)ureido)methyl)-1-methyl-1H-1,2,3-triazol-4-yl)-2-methylpyridin-3-yl)oxy)cyclohexane-1-carboxylic acid] the figure was 6.03.

Still in this test, the particulars now being: human LPA1 functional antagonist assay; read-out: hLPA1 IC50.
`CC[C@H](C)COC(=O)NCc1c(-c2cnc(O[C@H]3CCC[C@H](C(=O)O)C3)c(C)n2)nnn1C` [Example 161, (1S,3S)-3-((3-methyl-5-(1-methyl-5-(((((S)-2-methylbutoxy)carbonyl)amino)methyl)-1H-1,2,3-triazol-4-yl)pyrazin-2-yl)oxy)cyclohexane-1-carboxylic acid]: the pIC50 was 6.96.
`Cc1nc(-c2nnn(C)c2CN(C)C(=O)OCC(C)C)ccc1O[C@H]1CCC[C@H](C(=O)O)C1` [Example 203, (1S,3S)-3-((6-(5-(((isobutoxy-carbonyl)(methyl)amino)methyl)-1-methyl-1H-1,2,3-triazol-4-yl)-2-methylpyridin-3-yl)oxy)cyclo-hexane-1-carboxylic acid]: the pIC50 is 7.04.
The same measure, in the same setting: with `Cc1nc(-c2nnn(C)c2CNC(=O)OCC2CC2C)ccc1O[C@H]1CCC[C@H](C(=O)O)C1` (stereo partly drawn) [Example 179, (1S,3S)-3((2-methyl-6-(1-methyl-5-(((((2-methylcyclopropyl)methoxy)carbonyl)amino)methyl)-1H-1,2,3-triazol-4-yl)pyridin-3-yl)oxy)cyclohexane-1-carboxylic acid] the figure was 7.34.
On the same count and under the same terms, with `CCC[C@H](C)OC(=O)NCc1c(-c2ccc(O[C@H]3CCC[C@H](C(=O)O)C3)c(C)n2)nnn1C` [Example 165, (1S,3S)-3((2-methyl-6-(1-methyl-5-((((((S)-pentan-2-yl)oxy)carbonyl)amino)methyl)-1H-1,2,3-triazol-4-yl)pyridin-3-yl)oxy)cyclohexane-1-carboxylic acid] the figure was 7.47; with `Cc1nc(-c2nnn(C)c2CNC(=O)OCCC(F)(F)F)ccc1O[C@H]1CCC[C@H](C(=O)O)C1` [Example 181, (1S,3S)-3-((2-methyl-6-(1-methyl-5-((((3,3,3-trifluoropropoxy)carbonyl)amino)methyl)-1H-1,2,3-triazol-4-yl)pyridin-3-yl)oxy)cyclohexane-1-carboxylic acid], 7.02.
Take `Cc1nc(-c2nnn(C)c2CNC(=O)OCCCC(F)(F)F)ccc1O[C@H]1CCC[C@H](C(=O)O)C1` [Example 169, (1S,3S)-3-((2-methyl-6-(1-methyl-5-((((4,4,4-trifluorobutoxy)carbonyl)amino)methyl)-1H-1,2,3-triazol-4-yl)pyridin-3-yl)oxy)cyclohexane-1-carboxylic acid]: the pIC50 was 7.26.

Source of the values: US11697646B2, “Triazole N-linked carbamoyl cyclohexyl acids as LPA antagonists” (BRISTOL-MYERS SQUIBB COMPANY, priority 2017, dated 2023).
